According to PubChem BioAssay (NCI):
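Test compounds were applied to cells in 96-well plates for 48 hours at 5 doses. Here, GI50 denotes the concentration required for 50% inhibition of growth. At the TGI there is no net growth.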

Tested on: HCC-2998 colon
Experiment: NCI anticancer screen, dose series, 48 h

SMILES | GI50 | TGI
COc1ccc(/C=N/NC(=O)Cn2c(-c3ccc(S(C)(=O)=O)cc3)nc3cc(Cl)ccc32)cc1 | 1.85 µM | 12.5 µM
CC1CN1c1c(C(=O)/C=C/c2ccccc2)c(-c2ccccc2)nn(C)c1=O (centres undefined) | – | 29.9 µM
c1ccc(P(=Nc2ccccc2N=P(c2ccccc2)(c2ccccc2)c2ccccc2)(c2ccccc2)c2ccccc2)cc1 | – | 12.8 µM
COCCOCOc1ccc(OCOCCOC)c2c1C(=O)c1ccccc1C2=O | – | > 100 µM
CCO/C=C1\N=C(c2ccccc2Br)OC1=O | – | > 100 µM
O=P1(Oc2ccccc2)C(c2ccccc2)C(c2ccccc2)=NN1c1ccccc1 (centres undefined) | – | 89.8 µM
COc1ccc(C2[C@@H](Cl)C(=O)N2c2cc(OC)c(OC)c(OC)c2)cc1Cl (some centres undefined) | 0.41 µM | 17.6 µM
CCOC(=O)C(=O)Nc1cc(Cl)ccc1Cl | – | > 100 µM
N#Cc1ccc(N=Cc2c([O-])ccc3ccccc23)cc1.[C-]#[O+].[C-]#[O+].[Ir] | 14.7 µM | 27.8 µM
[N-]=[N+]=C1C(=O)C2CC3CC(C2)CC1C3 | – | > 100 µM
COC(=O)CC1NC(=O)C1C1(C)OCCO1 (centres undefined) | – | > 100 µM
COC(CN1C=C(Sc2ccccc2)CC1)OC | – | > 100 µM
Cc1cc2c(c(C(=O)O)c1C)-c1cccc(F)c1C2=O | – | > 100 µM
Cc1ccc(S(=O)OC2C3CC4CC(C3)CC2C4)cc1 (centres undefined) | – | > 100 µM
CN(C)c1ccc(/C=C2\C=Cc3ccccc32)cc1 | – | > 100 µM
COc1cc2nc(NCCCCCNC(=O)c3ccco3)nc(N)c2cc1OC | – | 38.2 µM
Cc1c(C2=C(c3cn(C)c4ccccc34)C(=O)NC2=O)c2ccccc2n1C | 24.9 µM | > 25 µM
C/C=C(\C)c1cc(O)c(C)c2c1Oc1cc(O)c(Cl)c(C)c1C(=O)O2 | – | 26.5 µM
COC(=O)C(C)(C)N=CN(C)C | – | > 100 µM
Cc1cc(N(CCC#N)CCC#N)ccc1/C=C1/N=C(c2ccccc2)N(N)C1=O | – | > 100 µM
CCOC1=C2N=C(Cc3ccccc3F)N=C2C(=O)c2ccccc21 | – | > 100 µM
CNS(=O)(=O)NNS(=O)(=O)c1ccc(Cl)cc1 | – | > 100 µM
C=C1CCC2[C@@H](CCC3[C@]2(C)CCC[C@]3(C)C(=O)OC)[C@@H]1CC=O (some centres undefined) | – | > 100 µM
CCCCCCCCCCCCCP(=O)(O)NCC(N)=O | – | > 100 µM
CN1COc2c(n(C)c(=O)[nH]c2=O)C1 | – | > 100 µM
CC1(C)OCC(C(O)C2OC(C)(C)OC2/C=N\O)O1 (centres undefined) | – | > 100 µM
CCCCCCN(N)C(=O)CC#N | – | > 100 µM
O=C(O)/C(Cl)=C(\Cl)C(=O)Nc1ccc(Cl)c(Cl)c1Cl | – | 35.1 µM
COc1ccc(C(Cl)=C(c2ccc(OCCN(C)C)cc2)c2ccc(OCCN(C)C)cc2)cc1 | – | 7.35 µM
CC1(C)C2CCC13CS(=O)(=O)N1O[C@]13C(=O)O2 (some centres undefined) | – | > 100 µM

Tested on: SF-295 CNS
Experiment: NCI anticancer screen, dose series, 48 h

SMILES | GI50 | TGI
COc1ccc(/C=N/NC(=O)Cn2c(-c3ccc(S(C)(=O)=O)cc3)nc3cc(Cl)ccc32)cc1 | 1.47 µM | > 50 µM
CC1CN1c1c(C(=O)/C=C/c2ccccc2)c(-c2ccccc2)nn(C)c1=O (centres undefined) | – | 46.8 µM
c1ccc(P(=Nc2ccccc2N=P(c2ccccc2)(c2ccccc2)c2ccccc2)(c2ccccc2)c2ccccc2)cc1 | – | 10.7 µM
COCCOCOc1ccc(OCOCCOC)c2c1C(=O)c1ccccc1C2=O | – | > 100 µM
CCO/C=C1\N=C(c2ccccc2Br)OC1=O | – | > 100 µM
O=P1(Oc2ccccc2)C(c2ccccc2)C(c2ccccc2)=NN1c1ccccc1 (centres undefined) | – | 89.5 µM
COc1ccc(C2[C@@H](Cl)C(=O)N2c2cc(OC)c(OC)c(OC)c2)cc1Cl (some centres undefined) | 0.0411 µM | 0.648 µM
CCOC(=O)C(=O)Nc1cc(Cl)ccc1Cl | – | > 100 µM
N#Cc1ccc(N=Cc2c([O-])ccc3ccccc23)cc1.[C-]#[O+].[C-]#[O+].[Ir] | 16.9 µM | 35.7 µM
[N-]=[N+]=C1C(=O)C2CC3CC(C2)CC1C3 | – | > 100 µM
COC(=O)CC1NC(=O)C1C1(C)OCCO1 (centres undefined) | – | > 100 µM
COC(CN1C=C(Sc2ccccc2)CC1)OC | – | 71 µM
CN(C)CCC(/C=C/c1ccccc1)=N\Nc1ccc(Cl)cc1Cl | – | 30.2 µM
COc1ccc(C=O)c(NC(=O)C(C)C)c1 | – | > 100 µM
Cc1cc2c(c(C(=O)O)c1C)-c1cccc(F)c1C2=O | – | > 100 µM
Cc1ccc(S(=O)OC2C3CC4CC(C3)CC2C4)cc1 (centres undefined) | – | > 100 µM

SMILES | GI50 | TGI
CN(C)c1ccc(/C=C2\C=Cc3ccccc32)cc1 | – | > 100 µM
COc1cc2nc(NCCCCCNC(=O)c3ccco3)nc(N)c2cc1OC | – | > 100 µM
Cc1c(C2=C(c3cn(C)c4ccccc34)C(=O)NC2=O)c2ccccc2n1C | 1.16 µM | > 25 µM
C/C=C(\C)c1cc(O)c(C)c2c1Oc1cc(O)c(Cl)c(C)c1C(=O)O2 | – | 32.4 µM
COC(=O)C(C)(C)N=CN(C)C | – | > 100 µM
Cc1cc(N(CCC#N)CCC#N)ccc1/C=C1/N=C(c2ccccc2)N(N)C1=O | – | > 100 µM
CN1CCN(CC(O)COc2c(Br)c(Br)c(Br)c3c2OC(C)(C)C3)CC1 (centres undefined) | 1.79 µM | 3.77 µM
CCOC1=C2N=C(Cc3ccccc3F)N=C2C(=O)c2ccccc21 | – | > 100 µM
CNS(=O)(=O)NNS(=O)(=O)c1ccc(Cl)cc1 | – | > 100 µM
C=C1CCC2[C@@H](CCC3[C@]2(C)CCC[C@]3(C)C(=O)OC)[C@@H]1CC=O (some centres undefined) | 50.2 µM | > 100 µM
CCCCCCCCCCCCCP(=O)(O)NCC(N)=O | – | > 100 µM
CN1COc2c(n(C)c(=O)[nH]c2=O)C1 | – | > 100 µM
CC1(C)OCC(C(O)C2OC(C)(C)OC2/C=N\O)O1 (centres undefined) | – | > 100 µM
O=C(O)/C(Cl)=C(\Cl)C(=O)Nc1ccc(Cl)c(Cl)c1Cl | – | 33 µM
COc1ccc(C(Cl)=C(c2ccc(OCCN(C)C)cc2)c2ccc(OCCN(C)C)cc2)cc1 | – | 3.24 µM
CC1(C)C2CCC13CS(=O)(=O)N1O[C@]13C(=O)O2 (some centres undefined) | – | > 100 µM

Tested on: 786-0 renal
Experiment: NCI anticancer screen, dose series, 48 h

SMILES | GI50 | TGI
COc1ccc(/C=N/NC(=O)Cn2c(-c3ccc(S(C)(=O)=O)cc3)nc3cc(Cl)ccc32)cc1 | 1.66 µM | > 50 µM
CC1CN1c1c(C(=O)/C=C/c2ccccc2)c(-c2ccccc2)nn(C)c1=O (centres undefined) | – | 30.6 µM
c1ccc(P(=Nc2ccccc2N=P(c2ccccc2)(c2ccccc2)c2ccccc2)(c2ccccc2)c2ccccc2)cc1 | – | 11.3 µM
COCCOCOc1ccc(OCOCCOC)c2c1C(=O)c1ccccc1C2=O | – | > 100 µM
CCO/C=C1\N=C(c2ccccc2Br)OC1=O | – | > 100 µM
O=P1(Oc2ccccc2)C(c2ccccc2)C(c2ccccc2)=NN1c1ccccc1 (centres undefined) | – | > 100 µM
